Where no end group is shown, it is not given here.
Key:
[1] = tested on: post-proteasomal aminopeptidases; test: Aminopeptidase hydrolytic activity in live CD4 T cells (fluorogenic H-Leu-AMC); type: cell-based, human; conditions: live primary CD4 T cells of healthy donors, 48 h treatment, versus DMSO; Bryostatin 10 nM, Panobinostat 30 nM; 50 μM H-Leu-AMC, 37°C; n = 8
Description: (§1) Romidepsin, Bryostatin, Disulfiram (Sigma), Ingenol-3-angelate (Santa Cruz Biotechnologies), Panobinostat (Selleckchem) were dissolved in DMSO (Fisher Scientific) to make stock solutions. Fresh aliquots were used for each experiment. The final concentrations for each LRA in cell culture were as follows: Panobinostat (30 nM), Romidepsin (40 nM), Disulfiram (500 nM), Bryostatin (10 nM), Ingenol-3-angelate (50 nM). Maximum in vitro stimulation was achieved by addition of anti-CD3/CD28 magnetic beads (Fisher Scientific) at a ratio of 1:1 bead to T cell as in [37]. For combination treatment, both drugs were added at the same time.
The proteasome hydrolytic activities caspase-like (50 μM Z-LLE-AMC; EMD Millipore), tryptic (50 μM Boc-LRR-AMC; Bachem), chymotryptic (50 μM Suc-LLVY-AMC; Bachem), post-proteasomal aminopeptidases (50 μM H-Leu-AMC; Bachem) were measured in 25x10^3 live CD4 T cells at given time points after drug treatment with peptidase-specific fluorogenic substrates as in [37, 40]. […] The rate of fluorescence emission, which is proportional to the proteolytic activity, was measured every 600 s at 37°C in a Victor-3 Plate Reader (Perkin Elmer), as in [37].

[2] = tested on: CD4 T cell extracts (antigen processing machinery); test: In vitro degradation of HIV-1 Gag p24-10-35m in extracts of LRA-treated CD4 T cells, mass spectrometry; type: biochemical, human; conditions: for HLA-B57 KF11 epitope production: LRA-treated extracts over matched DMSO, n = 6–10 donors
Description: as §1
(§2) 2 nmol of pure peptide (MGH peptide core facility or Biosynthesis, Texas) was degraded with 15 ug of CD4 T cell extracts at 37°C in pH7.4 degradation buffer as in [37, 40]. Aliquots were taken at various time points and the reaction was stopped by addition of 5% (v/v) of Formic acid (Thermo Scientific) and the degradation products were purified by trichloroacetic acid (Sigma) precipitation (final concentration 5% (v/v)) and identified by in-house mass spectrometry as previously described. Briefly, equal amounts of the purified degradation products were injected into a NanoLC Ultra-HPLC (Eksigent) for salt removal and separation, then online nanosprayed into an LTQ Orbitrap Discovery mass spectrometer (Thermo) for identification. Peptides were separated in a NanoLC column (ChromXP C18, 3 um 120Å; Eksigent) over a gradient of 2–60% buffer B (buffer A: 0.1% (v/v) formic acid in MS-grade water (Fisher Scientific)); buffer B: 0.1% (v/v) formic acid in MS-grade acetonitrile (Fisher Scientific) in 95 min with a conserved flow rate of 250 nl/min. Mass spectra were recorded in the 370–2000 Daltons range. In the tandem mass spectrometry mode, the eight most intense peaks were selected with a window of 1 Dalton and fragmented using helium as collision gas and a voltage of 35 V. Peaks in the mass spectra were searched against the source peptide databases with Proteome Discoverer (version 1.3; Thermo) and quantitatively analyzed. For a given peptide, the integrated area under the peak is proportional to the relative abundance of the peptide in the sample. Each sample was run on the mass spectrometer at least twice.

[3] = tested on: CD4 T cell extracts (antigen processing machinery); test: In vitro degradation of HIV-1 Gag p24-161-24m in extracts of LRA-treated CD4 T cells, mass spectrometry; type: biochemical, human
Description: as §1, §2

[4] = tested on: HIV-infected HLA-B57+ CD4 T cells; test: Endogenous processing and presentation assay: CD107a degranulation of epitope-specific CD8 T cells and peptide equivalent; type: cell-based, human; conditions: for score of peptide presentation efficiency (peptide equivalent over HIV infection rate) at 24 hours / equivalent peptide presented (TW10, ISW9, KF11) at 24 hpi: 24 hpi; for score of peptide presentation efficiency (peptide equivalent over HIV infection rate) at 24 hours: all 3 epitopes; for equivalent peptide presented (TW10, ISW9, KF11) at 24 hpi: radar plots
[5] = tested on: proteasome; conditions: cited from earlier work
From the text: Most LRAs selected so far to relieve transcriptional blocks act on signaling pathways and histone acetylation but are not specific to HIV LTR promoters or targeted to the reservoirs, thus their effect should be considered globally on genes and cellular machineries of cell populations.

[6] = tested on: primary CD4 T cells; test: CD25 and CD69 surface activation markers by flow cytometry; type: cell-based, human; conditions: 6, 24 and 48 h post treatment
Description: as §1
Untreated or LRA-treated CD4 T cells were stained with CD4-BV605, CD3-Pacific Blue (BD Biosciences) and HLA-ABC-AlexaFluor700 (Biolegend) to assess purity (95–99%) and CD38-FITC, CD69-PE, CD25-PerCpCy5.5 and HLA-DR-APC (BD Biosciences) to measure surface activation marker levels. Cellular activation levels were calculated by first gating on the double negative population of CD25 and CD69 of the non-treated sample on live, CD4- and CD3-positive cells and applying the same gates to the LRA-treated and CD3/CD28-stimulated samples as done in [37]. A similar gating strategy was applied to determine the proportion of CD38- and HLA-DR-positive CD4 T cells.

[7] = cited from earlier work
From the text: We similarly assessed the processing of another HIV fragment, p24-161-24mer, after LRAs or aCD3/CD28 treatments (Fig 3A).

[8] = extracts of CD4 T cells treated 48 h, 120-minute degradation, representative experiment
[9] = over matched DMSO, n = 8–11 healthy donors

**Q.** Which results are given for CCC/C=C/C=C/C(=O)O[C@H]1/C(=C/C(=O)OC)C[C@H]2C[C@H]([C@@H](C)O)OC(=O)C[C@H](O)C[C@@H]3C[C@H](OC(C)=O)C(C)(C)[C@](O)(C[C@@H]4C/C(=C/C(=O)OC)C[C@H](/C=C/C(C)(C)[C@]1(O)O2)O4)O3 [Bryostatin]?
**A.** aminopeptidase hydrolytic activities, average fold change [1]: 1.6 fold; amount of fragments starting at V2, V15, V17 of p24-10-35m [2, 8]: reduced; difference in amount of 8-11aa peptides of p24-10-35m versus DMSO- or Panobinostat-treated extracts ([2]; second half of the sequence, representative experiment): up to 5 times; increase of production of 8-11aa peptides in p24-161-24m ([3]; first half of the sequence, representative experiment): 2- to 5 fold; ratio of 8-11aa peptides of p24-161-24m produced in treated over DMSO treated cells ([3]; n = 4–10 donors): significantly increased; number of significantly changed N- or C-terminal cleavage sites, p24-161-24mer [3, 9]: 6; score of peptide presentation efficiency (peptide equivalent over HIV infection rate) at 24 hours [4]: lowest; equivalent peptide presented (TW10, ISW9, KF11) at 24 hpi [4]: among the lowest; efficiency of peptide presentation overtime ([4]; 24 to 72 hpi): increased; proteasome activities in fibroblasts [5]: can enhance proteasome activities

**Q.** For CCN(CC)C(=S)SSC(=S)N(CC)CC [Disulfiram], which “proportion of CD25+ and/or CD69+ primary CD4 T cells compared to DMSO-treated cells” value [6] is on record?
**A.** Neither HDACi nor disulfiram changed the proportion

**Q.** What about the “HLA-B57 KF11 epitope production” value [2] of the same compound?
**A.** decreased

**Q.** And the QW11 epitope production ([2]; treated extracts over matched DMSO, n = 2–6 donors)?
**A.** increased

**Q.** What about the “proteasome activities in cell lines” value ([5]; effect on NF-κB) of the same compound?
**A.** inhibited proteasome activities

**Q.** With CC[C@H](C)[C@H](NC(=O)[C@@H](NC(=O)[C@H](CCC(=O)O)NC(=O)[C@@H]1CCCN1C(=O)[C@H](CO)NC(=O)[C@H](Cc1ccccc1)NC(=O)[C@H](C)NC(=O)[C@@H](N)CCCCN)C(C)C)C(=O)N1CCC[C@H]1C(=O)N[C@@H](CCSC)C(=O)N[C@@H](Cc1ccccc1)C(=O)O [KF11] as the compound, how does the “degradability in the cytosol of primary cells” value [7] read?
**A.** less degradable

**Q.** Which results are given for Cc1[nH]c2ccccc2c1CCNCc1ccc(/C=C/C(=O)NO)cc1 [Panobinostat]?
**A.** aminopeptidase hydrolytic activities, average fold change [1]: 0.78 fold; HLA-B57 KF11 epitope production [2]: unchanged; amount of fragments starting at V2, V15, V17 of p24-10-35m [2, 8]: increased; reduction of fragments starting at H3 or N12 of p24-10-35m ([2]; extracts of CD4 T cells treated 48 h, 120-minute degradation, representative experiment, versus DMSO): 10 fold; HLA-B57 ISW9 epitope production ([2]; treated extracts over matched DMSO, n = 4–9 donors): increased; peptide production at each aa of p24-161-24mer [3, 9]: decreased peptide production at most aa; production of 8-11aa peptides throughout the p24-161-24m sequence ([3]; representative experiment): reduced; KF11 and ISW9 peptide equivalent displayed by HIV-infected CD4 T cells [4]: reduction of peptide presentation; score of peptide presentation efficiency (peptide equivalent over HIV infection rate) at 24 hours [4]: second highest; equivalent peptide presented (TW10, ISW9, KF11) at 24 hpi [4]: highest KF11 and ISW9 peptide presentations

**Q.** With ISPRTLNAW [ISW9] as the compound, how does the “degradability in the cytosol of primary cells” value [7] read?
**A.** among the most degradable

From article PMC7112239, “Latency reversal agents modulate HIV antigen processing and presentation to CD8 T cells” (PLoS Pathogens, 2020)
